Reference: patent US20260207621A1 (Vividion Therapeutics, Inc., priority 2022, published 2026)

Experiments:
KEAP1 C151 = biological target: T1, KEAP1 C151 (Homo sapiens, UniProt Q14145); experiment: Nrf2 TMT measurement: in vitro TE50 for KEAP1 C151 (IA-DTB competition, targeted TMT mass spectrometry) in MDA-MB-468 cell lysate; assay type: binding; details: in vitro target engagement of KEAP1 C151, targeted TMT, read-out: KEAP1_C151 TE50
T1 construct: treating 500 μg of cell lysate generated from MDA-MB-468 breast cancer cells with DMSO or compound; endogenous in cells; host or cells: MDA-MB-468 breast cancer cell lysate
T1 sequence (Q14145 whole entry): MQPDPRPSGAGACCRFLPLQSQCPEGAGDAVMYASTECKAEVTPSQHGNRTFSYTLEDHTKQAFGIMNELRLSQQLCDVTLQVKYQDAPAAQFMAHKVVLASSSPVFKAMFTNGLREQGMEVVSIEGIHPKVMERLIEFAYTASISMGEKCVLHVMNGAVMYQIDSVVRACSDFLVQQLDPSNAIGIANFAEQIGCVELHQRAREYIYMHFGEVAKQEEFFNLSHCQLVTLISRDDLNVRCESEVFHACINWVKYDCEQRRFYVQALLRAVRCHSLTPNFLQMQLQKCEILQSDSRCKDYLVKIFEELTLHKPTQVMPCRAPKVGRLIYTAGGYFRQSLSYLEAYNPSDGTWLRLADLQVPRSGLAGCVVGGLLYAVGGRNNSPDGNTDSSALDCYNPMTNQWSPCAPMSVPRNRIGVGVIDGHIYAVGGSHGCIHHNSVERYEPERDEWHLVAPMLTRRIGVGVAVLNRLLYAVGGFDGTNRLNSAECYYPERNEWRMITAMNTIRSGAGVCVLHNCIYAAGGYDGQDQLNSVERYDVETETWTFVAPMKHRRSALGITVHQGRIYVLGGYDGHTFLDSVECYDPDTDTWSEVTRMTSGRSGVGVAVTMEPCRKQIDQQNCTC
In short: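 MDA-MB-468 lysate (500 μg) treated with compound for 1 h at room temperature, then 200 μM IA-DTB for 1 h. Labeled peptides streptavidin-enriched after trypsin digest, TMT-labeled and quantified by targeted MS3 on the KEAP1 C151 peptide. IC50 from dose-response curve fitting.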

Nrf2 = Nrf2 antagonism assay: ARE luciferase reporter in KYSE-70 cells; assay type: cell-based; details: positive Imax corresponds to Nrf2 antagonism; for Emax: Homo sapiens, KYSE-70, KYSE-70 cells, read-out: KYSE70 Cellular ARE Luciferase Imax (%); for KYSE70 Cellular ARE Luciferase Imax (%): KYSE-70 cells
In short: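 KYSE-70 esophageal squamous carcinoma cells carrying Nrf2 W24C (constitutively Nrf2-high) with an ARE-driven luciferase reporter. Loss of luciferase signal reflects Nrf2 antagonism via KEAP1 C151 engagement. IC50 and Imax come from dose-response curves; positive Imax means antagonism.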

SMILES	IC50 (KEAP1 C151)	Emax (Nrf2)	KYSE70 Cellular ARE Luciferase Imax (%) (Nrf2)
C=CC(=O)N1CCOC[C@H]1c1cc(Cl)cc(-c2cnc(OC)c(N)n2)c1 (single isomer, unassigned) [Compound 259]	140 nM	93%	
C=CC(=O)N1[C@H](c2cc(Cl)nc(-c3cc(C(N)=O)ncn3)c2)COC[C@H]1C(F)F (single isomer, unassigned) [Compound 223]	3.5 nM	94%	
C=CC(=O)N1CCOCC12COc1c(-c3ccccc3)cc(Cl)cc12 (racemic) [Compound 7, 1-(5-chloro-7-phenyl-2H-spiro[benzofuran-3,3′-morpholin]-4′-yl)prop-2-en-1-one]	5260 nM	55%	
C=CC(=O)N1CCS(=O)(=O)CC1c1cc(Cl)cc(-c2ncnc(N)n2)c1 (single isomer, unassigned) [Compound 205, 1-(3-(3-(4-amino-1,3,5-triazin-2-yl)-5-chlorophenyl)-1,1-dioxidothiomorpholino)prop-2-en-1-one]	34 nM		92%
C=CC(=O)N1CCOC[C@H]1c1cc(Cl)cc(-c2c[nH]c(N)n2)c1 [Compound 193, (R)-1-(3-(3-(2-amino-1H-imidazol-4-yl)-5-chlorophenyl)morpholino)prop-2-en-1-one]	97 nM	91%	
C=CC(=O)N1CC2(COC2)C1c1cc(Cl)cc(-c2ccnc(N)n2)c1 (single isomer, unassigned) [Compound 168]	120 nM	74%	
C=CC(=O)N1CC(C)(C)OCC1c1cc(Cl)nc(-c2ccc(F)c(C(N)=O)c2)c1 (single isomer, unassigned) [Compound 69, 5-(4-(4-acryloyl-6,6-dimethylmorpholin-3-yl)-6-chloropyridin-2-yl)-2-fluorobenzamide]	88.4 nM	82%	
C=CC(=O)N1CCOC[C@H]1c1cc(Cl)cc(-c2ccnc(N)c2)c1 (single isomer, unassigned) [Compound 136]	52 nM	81%	
C=CC(=O)N1CCOCC1c1cc(Cl)cc(-c2cc(F)cc(C(N)=O)c2)c1 (single isomer, unassigned) [Compound 72, 3′-(4-acryloylmorpholin-3-yl)-5′-chloro-5-fluoro-[1,1′-biphenyl]-3-carboxamide]	27 nM	80%	
C=CC(=O)N1CCC(F)(F)CC1c1cc(Cl)cc(-c2ccnc(C)n2)c1 (single isomer, unassigned) [Compound 281, 1-(2-(3-chloro-5-(2-methylpyrimidin-4-yl)phenyl)-4,4-difluoropiperidin-1-yl)prop-2-en-1-on]	61 nM	84%	
C=CC(=O)N1CCOC[C@H]1c1cc(Cl)cc(-c2cc(N)cnn2)c1 (single isomer, unassigned) [Compound 132]	< 6.4 nM	78%	
C=CC(=O)N1CCN(C(C)=O)C[C@H]1c1cc(Cl)cc(-c2ncccn2)c1 (single isomer, unassigned) [Compound 17]	96.3 nM	65%	
C=CC(=O)N1CCOC[C@H]1c1cc(Cl)cc(-n2cc(N)cn2)c1 (single isomer, unassigned) [Compound 211]	85 nM	57%	
C=CC(=O)N1CCOCC1c1cc(Cl)cc(-c2cnccn2)c1 (single isomer, unassigned) [Compound 54, 1-(3-(3-chloro-5-(pyrazin-2-yl)phenyl)morpholino)prop-2-en-1-one]	49 nM	70%	
C=CC(=O)N1CC(C)(C)OC[C@H]1c1cc(Cl)cc(-c2cc(C)ncn2)c1 (single isomer, unassigned) [Compound 46]	140 nM	84%	
C=CC(=O)N1CCN(S(C)(=O)=O)C[C@H]1c1cc(Cl)cc(-c2ncnc(N)n2)c1 (single isomer, unassigned) [Compound 123]	13 nM	73%	
C=CC(=O)N1C[C@@H](C)N(C(=O)C2CC2)C[C@H]1c1cc(Cl)cc(-c2ncc(N)cn2)c1 (single isomer, unassigned) [Compound 245]	90 nM	53%	
C=CC(=O)N1CC[C@@](C)(O)C[C@@H]1c1cc(Cl)cc(-c2ncc(N)cn2)c1 (single isomer, unassigned) [Compound 264]	160 nM	86%	
C=CC(=O)N1CCOC[C@H]1c1cc(Cl)cc(-c2nc(N)[nH]c(=O)n2)c1 (single isomer, unassigned) [Compound 177]	150 nM	87%	
C=CC(=O)N1CCOC[C@H]1c1cc(Cl)cc(N2CCNC(=O)C2)c1 (single isomer, unassigned) [Compound 228]	130 nM	79%	
C=CC(=O)N1CC2(COC2)C1c1cc(Cl)cc(-c2ncnc(N)n2)c1 (single isomer, unassigned) [Compound 159, 1-(5-(3-(4-amino-1,3,5-triazin-2-yl)-5-chlorophenyl)-2-oxa-6-azaspiro[3,3]heptan-6-yl)prop-2-en-1-one]	320 nM	63%	

SMILES	IC50 (KEAP1 C151)	Emax (Nrf2)	KYSE70 Cellular ARE Luciferase Imax (%) (Nrf2)
C=CC(=O)N1[C@H](C)COC[C@H]1c1cc(Cl)nc(-c2ccnc(C(N)=O)c2)c1 (single isomer, unassigned) [Compound 145]	11 nM	90%	
C=CC(=O)N1CC(C)(C)OC[C@H]1c1cc(Cl)cc(-c2ccc(F)c(C(N)=O)c2)c1 (single isomer, unassigned) [Compound 61]	51.3 nM	89%	
C=CC(=O)N1CCOC[C@H]1c1cc(Cl)cc(-c2cc(OC)ncn2)c1 (single isomer, unassigned) [Compound 86]	7.3 nM	83%	
C=CC(=O)N1CCOCC1c1cc(Cl)cc(-c2ccn3ccnc3c2)c1 (single isomer, unassigned) [Compound 43, 1-(3-(3-chloro-5-(imidazo[1,2-a]pyridin-7-yl)phenyl)morpholino)prop-2-en-1-one]	25 nM	87%	
C=CC(=O)N1CCOC[C@H]1c1cc(Cl)cc(-c2ncnc(NCCCN(C)C)n2)c1 (single isomer, unassigned) [Compound 221]	280 nM	78%	
C=CC(=O)N1CCOC[C@H]1c1cc(Cl)cc(-c2nccc(N)n2)c1 (single isomer, unassigned) [Compound 96]	20 nM	94%	
C=CC(=O)N1CCOC[C@H]1c1cc(Cl)cc(C2CNC(=O)CO2)c1 (single isomer, unassigned) [Compound 231]	320 nM		55%
C=CC(=O)N1CCOC[C@H]1c1cc(Cl)cc(-c2cc(N)ncn2)c1 (single isomer, unassigned) [Compound 80]	290 nM	94%	
C=CC(=O)N1CCOC[C@H]1c1cc(Cl)cc(C2CNC(=S)CO2)c1 (single isomer, unassigned) [Compound 241]	170 nM		87%
C=CC(=O)N1CCOC[C@H]1c1cc(Cl)cc(-c2cccc(NC(C)=O)c2)c1 (single isomer, unassigned) [Compound 2]	10.7 nM	52%	
C=CC(=O)N1CCOCC1c1cc(Cl)nc(-c2cc(C(N)=O)ncn2)c1 (single isomer, unassigned) [Compound 125, 6-(4-(4-acryloylmorpholin-3-yl)-6-chloropyridin-2-yl)pyrimidine-4-carboxamide]	< 6.4 nM	91%	
C=CC(=O)N1CCOC[C@H]1c1cc(Cl)cc(-c2ccnc3[nH]ccc23)c1 (single isomer, unassigned) [Compound 97]	23 nM	86%	
C=CC(=O)N1CCS(=O)(=O)CC1c1cc(Cl)cc(-c2cc[nH]c(=O)c2)c1 (single isomer, unassigned) [Compound 39, 4-(3-(4-acryloyl-1,1-dioxidothiomorpholin-3-yl)-5-chlorophenyl)pyridin-2(1H)-one]	49 nM	66%	
C=CC(=O)N1CCOC[C@H]1c1cc(Cl)cc(-c2ncncn2)c1 (single isomer, unassigned) [Compound 147]	180 nM	74%	
C=CC(=O)N1[C@H](c2cc(Cl)cc(-c3ncc(N)cn3)c2)COC[C@H]1C(F)F (single isomer, unassigned) [Compound 291]	< 6.4 nM	93%	
C=CC(=O)N1CCS(=O)(=O)CC1c1cc(Cl)cc(-c2nccc(N)n2)c1 (single isomer, unassigned) [Compound 209, 1-(3-(3-(4-aminopyrimidin-2-yl)-5-chlorophenyl)-1,1-dioxidothiomorpholino)prop-2-en-1-one]	82 nM	93%	
C=CC(=O)N1CCN(S(C)(=O)=O)CC1c1cc(Cl)cc(-c2ccnc(NC(C)=O)c2)c1 (single isomer, unassigned) [Compound 6, N-(4-(3-(1-acryloyl-4-(methylsulfonyl)piperazin-2-yl)-5-chlorophenyl)pyridin-2-yl)acetamide]	2.6 nM	58%	
C=CC(=O)N1CCOCC1c1cc(Cl)cc(-c2ccnnc2)c1 (single isomer, unassigned) [Compound 14, 1-(3-(3-chloro-5-(pyridazin-4-yl)phenyl)morpholino)prop-2-en-1-one]	144 nM	55%	
C=CC(=O)N1CCOC[C@H]1c1cc(Cl)cc(-c2c[nH]nn2)c1 (single isomer, unassigned) [Compound 269]	950 nM	72%	
C=CC(=O)N1[C@H](C(N)=O)COC[C@H]1c1cc(Cl)nc(-c2cc(N)ncn2)c1 (single isomer, unassigned) [Compound 172]	20 nM	71%	
